{"source": "paper PMC4317577", "about": "“Synthetic Covalently Linked Dimeric Form of H2 Relaxin Retains Native RXFP1 Activity and Has Improved In Vitro Serum Stability” (BioMed Research International, 2015)", "key": {"In vitro serum stability": {"assay": "In vitro serum stability", "assay_type": "in vitro ADME", "conditions": "100% human serum; 100% male human serum, not heat inactivated, 37°C; 10.0 μL of 1.0 mg/mL peptide in 590 μL serum; samples 0-6 h, acetonitrile/0.1% TFA quench, RP-HPLC (C4) peak area; triplicate", "description": "The stability of the synthetic analogue was measured against native H2 relaxin in human serum. The purchased serum was not heat inactivated in order to retain as much of its proteolytic enzymic activity as possible. The peptides tested were normalized to a final concentration of 1.0 mg/mL with deionized water, and 10.0 μL of peptides was added to 590 μL 100% human serum. After addition of peptide into the serum, 50 μL of samples was removed and quenched with 250 μL of ice-cold acetonitrile/0.1% TFA. The solution was then spun down with a benchtop centrifuge at 13,500 rpm (Eppendorf Centrifuge 5804R, Melbourne, Australia) for 15 mins at 4°C to pellet the larger, precipitated serum proteins. The remaining peptide/serum solution was placed immediately into 37°C incubator. Degradation of peptides was monitored with manual RP-HPLC injections of supernatant using a Phenomenex Aeris Widepore 3.6 μm C4 analytical column (pore size, 100 Å; particle size 4.6 × 250 mm), in a stabilized gradient mode with eluent A: 0.1% aq TFA and eluant B: 0.1% TFA in acetonitrile. Samples were taken at time points 0.5, 1.0, 1.5, 2.0, 2.5, 3, 4, 5, and 6 h. […] Nonspecific peptide degradation was measured by peptide degradation in serum at 0 h. […] GraphPad Prism 5 was used to analyze the peptide degradation in serum which was expressed as the mean ratio ± S.E.M. and Microsoft Excel was used to graph all data. […]"}, "human RXFP2": {"target": "T1, human RXFP2 (Homo sapiens, UniProt Q8WXD0)", "T1 construct": "expressed in transfected cells; host or cells: HEK-293T", "T1 sequence (Q8WXD0 whole entry)": "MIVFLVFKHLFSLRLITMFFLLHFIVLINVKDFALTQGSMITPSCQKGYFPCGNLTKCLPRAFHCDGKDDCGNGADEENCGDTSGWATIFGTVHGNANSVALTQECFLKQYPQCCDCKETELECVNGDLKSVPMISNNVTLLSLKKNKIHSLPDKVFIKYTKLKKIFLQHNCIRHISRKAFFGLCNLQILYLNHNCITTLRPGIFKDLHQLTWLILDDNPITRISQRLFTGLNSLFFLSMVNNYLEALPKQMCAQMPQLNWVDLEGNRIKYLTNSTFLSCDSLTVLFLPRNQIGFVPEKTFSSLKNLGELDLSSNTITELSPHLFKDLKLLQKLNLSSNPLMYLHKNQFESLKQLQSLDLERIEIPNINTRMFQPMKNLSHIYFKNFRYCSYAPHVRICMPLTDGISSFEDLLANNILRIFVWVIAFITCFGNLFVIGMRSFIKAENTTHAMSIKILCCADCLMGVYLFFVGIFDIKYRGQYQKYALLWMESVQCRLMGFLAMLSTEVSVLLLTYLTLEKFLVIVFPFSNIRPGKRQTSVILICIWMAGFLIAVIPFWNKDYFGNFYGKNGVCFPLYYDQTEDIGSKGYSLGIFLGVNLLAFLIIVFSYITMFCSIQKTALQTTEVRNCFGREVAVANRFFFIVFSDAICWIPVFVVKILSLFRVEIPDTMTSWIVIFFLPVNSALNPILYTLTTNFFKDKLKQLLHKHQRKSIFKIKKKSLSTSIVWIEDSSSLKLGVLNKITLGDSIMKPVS", "assay": "cAMP reporter gene (pCRE β-galactosidase) assay in RXFP2 expressing HEK-293T cells", "assay_type": "cell-based", "conditions": "HEK-293T cells expressing RXFP2, pCRE β-galactosidase reporter, 6 h at 37°C; at least three independent experiments in triplicate", "description": "The influence of cAMP signaling by synthetic analogues in HEK-293T cells expressing either human RXFP1 or RXFP2 receptors was assessed using cAMP reporter gene assay as described previously. Briefly, HEK-293T cotransfected with response element pCRE β-galactosidase reporter plasmid were plated out in Corning Cell BIND 96-well plate at 50 000 cells per well per 200 μL. 24 h later, cotransfected cells were treated with increasing concentrations of H2 relaxin analogues in parallel with native H2 relaxin or human INSL3. After 6 h incubation at 37°C, cell media were aspirated and cells were frozen at −80°C overnight. A β-galactosidase colorimetric assay measuring absorbance at 570 nm on Benchmark Plus microplate spectrophotometer (Bio-Rad, Gladesville, Australia) was then used to measure relative cAMP responses. Each concentration point was measured in triplicate and each experiment performed independently at least three times. Ligand-induced stimulation of cAMP was expressed as a percentage of the maximum H2 relaxin response for RXFP1 cells or human INSL3 for RXFP2 cells. GraphPad Prism 5 was used to analyze the cAMP activity assay which was expressed as the mean ± S.E.M. Statistical analysis was conducted using one-way ANOVA with Newman-Keuls post hoc analysis."}, "[1]": {"conditions": "cited from earlier work", "description": "Nearly 9 decades since its discovery, the pleotropic peptide H2 relaxin recently completed a successful Phase III clinical trial for the treatment of acute heart failure. Despite this important success, the short in vivo half-life of the peptide (10 mins) necessitates its continuous intravenous infusion for optimum activity. As the in vivo half-life of a peptide or protein is affected by both its degradation by enzymes and renal clearance, it can be improved by, for example, conjugation with large MW compounds such as PEG or by polymerization/aggregation ..."}}, "data": [{"molecule": "CC[C@H](C)[C@@H]1NC(=O)[C@H](C)NC(=O)[C@H](CC(C)C)NC(=O)[C@H](CCC(N)=O)NC(=O)[C@H](C)NC(=O)[C@H](CCCNC(=N)N)NC(=O)[C@H](C(C)C)NC(=O)[C@H](CC(C)C)NC(=O)[C@H](CCC(=O)O)NC(=O)[C@H](CCCNC(=N)N)NC(=O)CNC(=O)[C@@H](NC(=O)[C@H](CC(C)C)NC(=O)[C@H](CCCCN)NC(=O)[C@@H](NC(=O)[C@@H](NC(=O)[C@H](CCC(=O)O)NC(=O)[C@H](CCC(=O)O)NC(=O)[C@H](CCSC)NC(=O)[C@H](Cc2c[nH]c3ccccc23)NC(=O)[C@H](CO)NC(=O)[C@H](CC(=O)O)NC(=O)[C@@H](N)Cc2cn(CCOCCOCCOCCOCCOCCOCCOCCn3cc(C[C@H](N)C(=O)N[C@@H](CC(=O)O)C(=O)N[C@@H](CO)C(=O)N[C@@H](Cc4c[nH]c5ccccc45)C(=O)N[C@@H](CCSC)C(=O)N[C@@H](CCC(=O)O)C(=O)N[C@@H](CCC(=O)O)C(=O)N[C@H](C(=O)N[C@H](C(=O)N[C@@H](CCCCN)C(=O)N[C@@H](CC(C)C)C(=O)N[C@H]4CSSC[C@@H]5NC(=O)[C@@H](NC(=O)[C@H](CCCCN)NC(=O)[C@H](CC(N)=O)NC(=O)[C@H](C)NC(=O)[C@H](CC(C)C)NC(=O)[C@H](C)NC(=O)[C@H](CO)NC(=O)[C@H](Cc6ccc(O)cc6)NC(=O)[C@H](CC(C)C)NC(=O)[C@@H]6CCC(=O)N6)CSSC[C@H](NC(=O)CNC(=O)[C@H](C(C)C)NC(=O)[C@H](Cc6c[nH]cn6)NC5=O)C(=O)N[C@@H]([C@@H](C)O)C(=O)N[C@@H](CCCCN)C(=O)N[C@@H](CCCNC(=N)N)C(=O)N[C@@H](CO)C(=O)N[C@@H](CC(C)C)C(=O)N[C@@H](C)C(=O)N[C@@H](CCCNC(=N)N)C(=O)N[C@@H](Cc5ccccc5)C(=O)N[C@H](C(N)=O)CSSC[C@@H](C(=O)NCC(=O)N[C@@H](CCSC)C(=O)N[C@@H](CO)C(=O)N[C@H](C(=O)N[C@@H](Cc5c[nH]c6ccccc56)C(=O)N[C@@H](CO)C(N)=O)[C@@H](C)O)NC(=O)[C@H]([C@@H](C)CC)NC(=O)[C@H](C)NC(=O)[C@H](CC(C)C)NC(=O)[C@H](CCC(N)=O)NC(=O)[C@H](C)NC(=O)[C@H](CCCNC(=N)N)NC(=O)[C@H](C(C)C)NC(=O)[C@H](CC(C)C)NC(=O)[C@H](CCC(=O)O)NC(=O)[C@H](CCCNC(=N)N)NC(=O)CNC4=O)[C@@H](C)CC)C(C)C)nn3)nn2)C(C)C)[C@@H](C)CC)CSSC[C@@H]2NC(=O)[C@@H](NC(=O)[C@H](CCCCN)NC(=O)[C@H](CC(N)=O)NC(=O)[C@H](C)NC(=O)[C@H](CC(C)C)NC(=O)[C@H](C)NC(=O)[C@H](CO)NC(=O)[C@H](Cc3ccc(O)cc3)NC(=O)[C@H](CC(C)C)NC(=O)[C@@H]3CCC(=O)N3)CSSC[C@H](NC(=O)CNC(=O)[C@H](C(C)C)NC(=O)[C@H](Cc3c[nH]cn3)NC2=O)C(=O)N[C@@H]([C@@H](C)O)C(=O)N[C@@H](CCCCN)C(=O)N[C@@H](CCCNC(=N)N)C(=O)N[C@@H](CO)C(=O)N[C@@H](CC(C)C)C(=O)N[C@@H](C)C(=O)N[C@@H](CCCNC(=N)N)C(=O)N[C@@H](Cc2ccccc2)C(=O)N[C@H](C(N)=O)CSSC[C@@H](C(=O)NCC(=O)N[C@@H](CCSC)C(=O)N[C@@H](CO)C(=O)N[C@H](C(=O)N[C@@H](Cc2c[nH]c3ccccc23)C(=O)N[C@@H](CO)C(N)=O)[C@@H](C)O)NC1=O", "note": "[H2 (PEG)7 H2 dimer]", "values": [{"measurement": "half-life at 16.7 µg/mL", "setting": "In vitro serum stability", "value": 2.52, "unit": "h"}, {"measurement": "cAMP activation at RXFP2 compared with H2 relaxin", "setting": "human RXFP2", "value": "significantly weaker activation propensity"}]}, {"molecule": "dimeric erythropoietin: dimeric erythropoietin formed by chemical crosslinking of the monomer", "values": [{"measurement": "activity in vivo relative to monomer", "setting": "[1]", "value": 26, "unit": "fold"}, {"measurement": "plasma half-life in rabbits", "setting": "[1]", "value": "more than 24 h"}]}, {"molecule": "erythropoietin monomer: erythropoietin monomer", "values": [{"measurement": "plasma half-life in rabbits", "setting": "[1]", "value": 4, "unit": "h"}]}]}
